# Data: patent US20070249670A1, “Glycogen Phosphorylase Inhibitor Compounds and Pharmaceutical Compositions Thereof” (SMITHKLINE BEECHAM CORPORATION, priority 2004, published 2007)
# Target: T1, human liver glycogen phosphorylase a (HLGPa) (Homo sapiens, UniProt P06737)
# T1 construct: creating a full-length cDNA fused at the 5′ end to codons for methionine-glycine-alanine-histidine; 6xHis tag (leader Met-Gly-Ala-His6-Gly-Gly) (N); made in house; host or cells: E. coli (bacterial expression plasmid pTXK1007LTev)
# T1 sequence (P06737 2-847 limits assumed): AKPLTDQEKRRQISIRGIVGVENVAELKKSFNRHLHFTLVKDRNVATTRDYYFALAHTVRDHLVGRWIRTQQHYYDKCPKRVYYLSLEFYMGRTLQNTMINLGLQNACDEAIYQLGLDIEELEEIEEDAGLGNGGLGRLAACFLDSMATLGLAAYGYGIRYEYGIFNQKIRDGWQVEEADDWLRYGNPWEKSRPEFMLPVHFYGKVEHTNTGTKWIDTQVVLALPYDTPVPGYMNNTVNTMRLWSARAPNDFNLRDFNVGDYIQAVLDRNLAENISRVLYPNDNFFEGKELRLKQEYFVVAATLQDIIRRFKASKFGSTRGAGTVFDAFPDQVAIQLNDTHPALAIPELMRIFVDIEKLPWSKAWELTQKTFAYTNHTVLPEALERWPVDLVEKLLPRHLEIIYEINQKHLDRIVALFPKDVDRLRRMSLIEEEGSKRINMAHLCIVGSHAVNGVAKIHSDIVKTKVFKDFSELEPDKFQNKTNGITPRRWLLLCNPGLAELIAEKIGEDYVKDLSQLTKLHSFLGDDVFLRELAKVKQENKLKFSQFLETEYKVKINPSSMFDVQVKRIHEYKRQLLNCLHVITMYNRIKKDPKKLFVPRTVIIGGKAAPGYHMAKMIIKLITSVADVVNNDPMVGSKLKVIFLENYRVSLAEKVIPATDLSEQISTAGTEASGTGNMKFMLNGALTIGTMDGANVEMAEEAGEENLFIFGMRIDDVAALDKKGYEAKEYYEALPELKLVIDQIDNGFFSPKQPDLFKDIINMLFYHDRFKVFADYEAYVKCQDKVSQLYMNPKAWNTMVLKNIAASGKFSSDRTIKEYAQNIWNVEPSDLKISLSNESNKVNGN
# Assay: Human liver glycogen phosphorylase a enzymatic activity assay (coupled, fluorescent resorufin readout, with and without 10 mM glucose)
# Type: biochemical
# Conditions: human liver glycogen phosphorylase a; table does not say whether with or without 10 mM glucose
row,Structure (SMILES),IC50 [nM]
1,"O=C(O)CN(Cc1ccccn1)C(=O)c1cc2ccccc2cc1NC(=O)Nc1c(Cl)cc(Cl)cc1Cl [Example 242, N-(2-pyridinylmethyl)-N-{[3-({[(2,4,6-trichlorophenyl)amino]carbonyl}amino)-2-naphthalenyl]carbonyl}glycine]",2860
2,"Cc1cccc(C)c1NC(=O)Nc1cc2ccccc2cc1C(=O)N(CC(=O)O)CC1CCCCC1 [Example 243, N-(cyclohexylmethyl)-N-{[3-({[(2,6-dimethylphenyl)amino]carbonyl}amino)-2-naphthalenyl]carbonyl}glycine]",1770
3,"Cc1cccc(C)c1NC(=O)Nc1cc2ccccc2cc1C(=O)N(CC(=O)O)C1CCCC1 [Example 244, N-cyclopentyl-N-{[3-({[(2,6-dimethylphenyl)amino]carbonyl}amino)-2-naphthalenyl]carbonyl}glycine]",970
4,"Cc1cccc(C)c1NC(=O)Nc1cc2ccccc2cc1C(=O)N(CC(=O)O)C1CCCCC1 [Example 245, N-cyclohexyl-N-{[3-({[(2,6-dimethylphenyl)amino]carbonyl}amino)-2-naphthalenyl]carbonyl}glycine]",2130
5,"Cc1cccc(C)c1NC(=O)Nc1cc2ccccc2cc1C(=O)N(CC(=O)O)CC(=O)O [Example 246, 2,2′-({[3-({[(2,6-dimethylphenyl)amino]carbonyl}amino)-2-naphthalenyl]carbonyl}imino)diacetic acid]",2120
6,"CCCCc1ccc(NC(=O)Nc2cc3ccccc3cc2C(=O)N[C@H](C(=O)O)C2CCCCC2)cc1 [Example 247, (2S)-({[3-({[(4-butylphenyl)amino]carbonyl}amino)-2-naphthalenyl]carbonyl}amino)(cyclohexyl)ethanoic acid]",10400
7,"O=C(Nc1ccc2c(c1)CCO2)Nc1cc2ccccc2cc1C(=O)N[C@H](C(=O)O)C1CCCCC1 [Example 248, (2S)-cyclohexyl{[(3-{[(2,3-dihydro-1-benzofuran-5-ylamino)carbonyl]amino}-2-naphthalenyl)carbonyl]amino}ethanoic acid]",15100
8,"Cc1onc(-c2ccccc2)c1NC(=O)Nc1cc2ccccc2cc1C(=O)N[C@H](C(=O)O)C1CCCCC1 [Example 249, (2S)-cyclohexyl({[3-({[(5-methyl-3-phenyl-4-isoxazolyl)amino]carbonyl}amino)-2-naphthalenyl]carbonyl}amino)ethanoic acid]",17400
9,"C[C@@H](C(=O)O)N(Cc1ccccc1)C(=O)c1cc2ccccc2cc1NC(=O)Nc1c(Cl)cccc1Cl [Example 250, N-{[3-({[(2,6-dichlorophenyl)amino]carbonyl}amino)-2-naphthalenyl]carbonyl}-N-(phenylmethyl)-L-alanine]",7770
10,"O=C(Nc1cc2ccccc2cc1C(=O)N(Cc1ccccc1)[C@@H](Cc1ccccc1)C(=O)O)Nc1c(Cl)cccc1Cl [Example 251, N-{[3-({[(2,6-dichlorophenyl)amino]carbonyl}amino)-2-naphthalenyl]carbonyl}-N-(phenylmethyl)phenylalanine]",12200
11,"CCCCN(CC(=O)O)C(=O)c1cc2ccccc2cc1NC(=O)Nc1c(Cl)cccc1Cl [Example 252, N-butyl-N-{[3-({[(2,6-dichlorophenyl)amino]carbonyl}amino)-2-naphthalenyl]carbonyl}glycine]",650
12,"Cc1cc(C)c(NC(=O)Nc2cc3ccccc3cc2C(=O)N2CCN(C(=O)OC(C)(C)C)C[C@H]2C(=O)O)c(C)c1 [Example 254, (2S)-4-{[(1,1-dimethylethyl)oxy]carbonyl}-1-{[3-({[(2,4,6-trimethylphenyl)amino]carbonyl}amino)-2-naphthalenyl]carbonyl}-2-piperazinecarboxylic acid]",810
13,"O=C(Nc1cc2ccccc2cc1C(=O)N[C@H](C(=O)O)C1CCCCC1)c1ccc(-c2ccc(Cl)cc2Cl)o1 [Example 255, (2S)-cyclohexyl({[3-({[5-(2,4-dichlorophenyl)-2-furanyl]carbonyl}amino)-2-naphthalenyl]carbonyl}amino)ethanoic acid]",2600
14,"Cc1cc(C)c(NC(=O)Nc2cc3ccccc3cc2C(=O)N2CCN(S(C)(=O)=O)C[C@H]2C(=O)O)c(C)c1 [Example 256, (2S)-4-(methylsulfonyl)-1-{[3-({[(2,4,6-trimethylphenyl)amino]carbonyl}amino)-2-naphthalenyl]carbonyl}-2-piperazinecarboxylic acid]",17400
15,"Cc1cc(C)c(NC(=O)Nc2cc3ccccc3cc2C(=O)N2CCCC[C@H]2C(=O)O)c(C)c1 [Example 257, (2S)-1-{[3-({[(2,4,6-trimethylphenyl)amino]carbonyl}amino)-2-naphthalenyl]carbonyl}-2-piperidinecarboxylic acid]",18400
16,"Cc1cc(C)c(NC(=O)Nc2cc3ccccc3cc2C(=O)O)c(C)c1 [Example 263, 3-({[(2,4,6-trimethylphenyl)amino]carbonyl}amino)-2-naphthalenecarboxylic acid]",3460
17,"Cc1cc(C)c(NC(=O)Nc2cc3ccccc3cc2C(=O)NC(CCC(C)CC(C)(C)C)C(=O)O)c(C)c1 (stereo not shown) [Example 264, 5,7,7-trimethyl-2-({[3-({[(2,4,6-trimethylphenyl)amino]carbonyl}amino)-2-naphthalenyl]carbonyl}amino)octanoic acid]",120
18,"Cc1cc(C)c(CC(=O)Nc2cc3ccccc3cc2C(=O)N[C@H](C(=O)O)[C@@H](C)OC(C)(C)C)c(C)c1 [Example 268, O-(1,1-dimethylethyl)-N-[(3-{[(2,4,6-trimethylphenyl)acetyl]amino}-2-naphthalenyl)carbonyl]-L-threonine]",50
19,"Cc1cc(C)c(NC(=O)Nc2cc3ccccc3cc2C(=O)N[C@@](C)(CC(C)C)C(=O)O)c(C)c1 [Example 269, 2-methyl-N-{[3-({[(2,4,6-trimethylphenyl)amino]carbonyl}amino)-2-naphthalenyl]carbonyl}leucine]",210
20,"Cc1cc(C)c(-c2ccc(C(=O)Nc3cc4ccccc4cc3C(=O)N[C@H](C(=O)O)C3CCCCC3)o2)c(C)c1 [Example 270, (2S)-cyclohexyl({[3-({[5-(2,4,6-trimethylphenyl)-2-furanyl]carbonyl}amino)-2-naphthalenyl]carbonyl}amino)ethanoic acid]",10300
21,"COCCOC[C@H](NC(=O)c1cc2ccccc2cc1NC(=O)Nc1c(C)cc(C)cc1C)C(=O)O [Example 272, O-[2-(methyloxy)ethyl]-N-{[3-({[(2,4,6-trimethylphenyl)amino]carbonyl}amino)-2-naphthalenyl]carbonyl}-L-serine]",38
22,"Cc1cc(C)c(NC(=O)Nc2cc3ccccc3cc2C(=O)N[C@@H](COC2CCOCC2)C(=O)O)c(C)c1 [Example 276, O-(tetrahydro-2H-pyran-4-yl)-N-{[3-({[(2,4,6-trimethylphenyl)amino]carbonyl}amino)-2-naphthalenyl]carbonyl}-L-serine]",45
23,"O=C(Nc1cc2ccccc2cc1C(=O)NC1(C(=O)O)CCCC1)Nc1c(Cl)cc(Cl)cc1Cl [Example 279, 1-({[3-({[(2,4,6-Trichlorophenyl)amino]carbonyl}amino)-2-naphthalenyl]carbonyl}amino)cyclopentanecarboxylic acid]",3000
24,"O=C(Nc1cc2ccccc2cc1C(=O)NC1(C(=O)O)CCCCC1)Nc1c(Cl)cc(Cl)cc1Cl [Example 281, 1-({[3-({[(2,4,6-trichlorophenyl)amino]carbonyl}amino)-2-naphthalenyl]carbonyl}amino)cyclohexanecarboxylic acid]",1620
25,"Cc1cc(C)c(NC(=O)Nc2cc3ccccc3cc2C(=O)NC2(C(=O)O)CCOCC2)c(C)c1 [Example 282, 4-({[3-({[(2,4,6-Trimethylphenyl)amino]carbonyl}amino)-2-naphthalenyl]carbonyl}amino)tetrahydro-2H-pyran-4-carboxylic acid]",1150
26,"O=C(Nc1cc2ccccc2cc1C(=O)NC1(C(=O)O)CCOCC1)Nc1c(Cl)cccc1Cl [Example 283, 4-({[3-({[(2,6-Dichlorophenyl)amino]carbonyl}amino)-2-naphthalenyl]carbonyl}amino)tetrahydro-2H-pyran-4-carboxylic acid]",7180
27,"O=C(Nc1cc2ccccc2cc1C(=O)NC1(C(=O)O)CCSCC1)Nc1c(Cl)cc(Cl)cc1Cl [Example 284, 4-({[3-({[(2,4,6-Trichlorophenyl)amino]carbonyl}amino)-2-naphthalenyl]carbonyl}amino)tetrahydro-2H-thiopyran-4-carboxylic acid]",2310
28,"Cc1cc(C)c(NC(=O)Nc2cc3ccccc3cc2C(=O)NC2(C(=O)O)CCS(=O)(=O)CC2)c(C)c1 [Example 285, 4-({[3-({[(2,4,6-Trimethylphenyl)amino]carbonyl}amino)-2-naphthalenyl]carbonyl}amino)tetrahydro-2H-thiopyran-4-carboxylic acid 1,1-dioxide]",3310
